Reference: patent US9301528B2 (Rohm and Haas Company, priority 2012, dated 2016)

Tests used:
Chlorella sp. ATCC 7516 = assay: Algal efficacy testing of dry paint films (modified ASTM 5589, 6-well plates); assay type: cell-based; conditions: 3 weeks; for % inhibition: at the total conc, vs blank; for Total conc: total biocide conc in paint reported for pass level ≧75% inhibition (max tested 5000 ppm if no pass)
Experimental: (§1) KATHON™ 893T (100% OIT) and ROCIMA™ 200 (20% DCOIT) were post added to a white, acrylic/silicone based outdoor paint free of biocides to give a total active ingredient concentration of 10000 and 1000 ppm respectively. These paints were then diluted with an antimicrobial free acrylic/silicone based paint and mixed to prepare targeted concentrations of antimicrobial compounds for the testing. The total biocides concentrations tested were 125, 250, 500, 1000, 2000 and 5000 ppm. After biocides addition or dilution, the paints were mixed 90 seconds with the horse power shaker (AXEL 75M3372/Agitateur SO-10MI) until uniformity was achieved. Paints containing different antimicrobial compounds at the same levels were mixed together in order to obtain the desired ratio of antimicrobial compounds. After one day, the paints were applied to Schleicher & Schuell filter paper at 280 μm wet film thickness and dried for 3 days at room temperature avoiding direct exposure to sunlight. Square discs (1.6 cm×1.6 cm) were cut out from each panel and were used as the substrate for algal efficacy tests. This sample size allowed for an agar border when the sample disc was placed into the well of the test plate.
(§2) Algal efficacy was tested according to modified ASTM 5589 which is a standard accelerated test method for determining resistance of various coatings (including paints) to algal defacement. To accommodate for high-throughput screening, this method was scaled down from petri dishes to 6-well plates. Bold Modified Basal Freshwater Nutrient Solution was used as growth medium. A single coated filter paper coupon was placed with a pair of sterile forceps at the center of the agar plug (on top) with the painted surface facing upwards. Algal inoculums were prepared by mixing equal concentrations (1×10^6 cfu/ml) and equal volumes of exponentially growing algae cultures.
(§3) Each well that contains a tested coupon was inoculated with 1750 μl of algal suspensions (1×10^6 cfu/ml) making sure that the whole surface (paint film as well as the agar surrounding it) was evenly covered. The plates were incubated at room temp (21° C.-25° C.) with cyclic exposure to light and dark phases, for a period of three weeks.
(§4) At the end of the three week incubation period, the samples were scored for percent inhibition regarding visible algal growth compared to the blank sample (0% inhibition).
(§5) The SI is calculated based on F. C.
(§6) SI value of <1 in the formula indicates a synergism of the blended biocides exists.
(§7) The minimal targeted inhibition was set at 75%, meaning a coupon with at least 75% algal growth inhibition was considered as a pass.

[1] = tested on: Stichococcus bacillaris SAG 379-1a / CCAP 379/1a; assay: as above; assay type: cell-based; conditions: 3 weeks; for % inhibition: at the total conc, vs blank; for Total conc: total biocide conc in paint reported for pass level ≧75% inhibition (max tested 5000 ppm if no pass)
Experimental: as §1, §2, §3, §4, §5, §6, §7

Structure (SMILES)	% inhibition (Chlorella sp. ATCC 7516; DCOIT/Lenacil table) [%]	Total conc (Chlorella sp. ATCC 7516; DCOIT/Lenacil table) [ppm]	% inhibition ([1]; DCOIT/Lenacil table) [%]	Total conc ([1]; DCOIT/Lenacil table) [ppm]	% inhibition (Chlorella sp. ATCC 7516; OIT/Lenacil table) [%]	Total conc (Chlorella sp. ATCC 7516; OIT/Lenacil table) [ppm]	% inhibition ([1]; OIT/Lenacil table) [%]	Total conc ([1]; OIT/Lenacil table) [ppm]
CCCCCCCCn1sc(Cl)c(Cl)c1=O [DCOIT, 4,5-dichloro-2-n-octyl-4-isothiazolin-3-one]	85	1000	95	1000	–	–	–	–
O=c1[nH]c2c(c(=O)n1C1CCCCC1)CCC2 [Lenacil, 3-cyclohexyl-1,5,6,7-tetrahydrocyclopentapyrimidine-2,4(3H)-dione]	30	5000	70	5000	45	5000	30	5000
CCCCCCCCn1sccc1=O [OIT, 2-n-octyl-4-isothiazolin-3-one]	–	–	–	–	95	1000	90	500
